{"source": "patent US11045510B2", "about": "“Combination of aqueous extracts of watercress and nasturtium and ATP for use in the treatment of alopecia” (PIERRE FABRE DERMO-COSMETIQUE, priority 2017, dated 2021)", "key": {"[1]": {"system": "hepatocyte growth factor (HGF) released by dermal papilla cells", "assay": "HGF release by dermal papilla cells derived from human hair follicles", "type": "cell-based", "conditions": "ATP 30 μM", "protocol": "(§1) The goal of this study is to evaluate the effects of the combination of an aqueous extract of watercress and of an aqueous extract of Indian cress, combined with ATP on the release of 2 anagen phase markers, hepatocyte growth factor (HGF) and keratinocyte growth factor (KGF), released by dermal papilla cells. These two growth factors have a stimulatory activity on hair growth by activating specific signalling pathways.\n(§2) The studies were carried out on dermal papilla cells derived from human hair follicles from three different donors. The cells are seeded in 24-well plates and cultured for 24 h with the necessary supplements. The cells are then treated for 24 h with the products, i.e., either with ATP (30 μM), with Cressatine®, i.e., an aqueous extract of watercress and an aqueous extract of Indian cress (140 μg/ml), or with the combination ATP-Cressatine® at the same concentrations as before. The supernatants were collected for subsequent analysis of markers HGF and KGF. HGF is measured using set HCCBP1MAG-58K from EMD Millipore and KGF is measured by using set KGF/FGF-7 DuoSet ELISA DY251 from R&D Systems."}, "[2]": {"system": "keratinocyte growth factor (KGF) released by dermal papilla cells", "assay": "KGF release by dermal papilla cells derived from human hair follicles", "type": "cell-based", "conditions": "ATP 30 μM", "protocol": "as §1, §2"}, "[3]": {"conditions": "cells treated for 24 h, Cressatine 140 μg/ml, combination at same concentrations, average of 3 donors"}}}
{"smiles": "Nc1ncnc2c1ncn2[C@@H]1O[C@H](COP(=O)(O)OP(=O)(O)OP(=O)(O)O)[C@@H](O)[C@H]1O", "note": "[ATP, adenosine 5′-triphosphate]", "values": [{"measurement": "HGF", "setting": "[1]; [3]", "value": 92, "unit": "pg/mL"}, {"measurement": "modulation of the production of HGF (in words)", "setting": "[1]; versus control, 24 h", "value": "does not significantly modulate"}, {"measurement": "KGF", "setting": "[2]; [3]", "value": 37, "unit": "pg/mL"}, {"measurement": "higher secretion of KGF", "setting": "[2]; versus control, 24 h", "value": 50, "unit": "%"}]}
